Consider 18 compounds from patent US20230089368A1, “POLYAROMATIC UREA DERIVATIVES AND THEIR USE IN THE TREATMENT OF MUSCLE DISEASES” (ANAGENESIS BIOTECHNOLOGIES S.A.S., priority 2019, published 2023).

Assay [1] deals with satellite-like cells (Pax7-positive cells) in hMP. As to the kind of experiment: Myotube assay: Pax7-positive (satellite-like) cell quantification. It counts as cell-based, human. As to conditions: myotube assay, compounds incubated 3 days. Further details: key to Pax7% (pool of Pax7-positive cells) / Pax7: −: Depletes the pool of cells, while positively affects the myotubes; +: Maintains or increases the pool of cells, with at least 1 of the highest concentration known to be cytotoxic; ++: Maintains or increases the pool of cells, without any toxicity. From the text: (§1) The efficacy of said compound for use in treating, ameliorating, delaying, curing and/or preventing a disease or condition associated with muscle cells and/or satellite cells is positively correlated with the generation of myotubes (i.e. the increase of the area occupied by myotubes on the assay) and/or satellite cells (i.e. the increase of the number of satellite cells) in the assay after adding said compound. The generation of myotubes by the addition of said compound is expressed as the EC50 value, the concentration of said compound that corresponds with the half-maximal generation of myotubes, and the MA (normalized myotube area) value, the normalized area occupied by generated myotubes on the assay. […] Since muscle cells are formed from myotubes during myogenesis, the generation of myotubes in the assay is a good indicator of the ability of said compound to induce the formation of functional muscle cells in vivo. The number of satellite cells is measured as the percentage of Pax7 positive cells, relative to the total number of cells in the assay, as shown in FIG. 3. The percentage of Pax7 is a good indicator of the ability of said compound to induce the formation of satellite cells which are able to play a role in muscle repair and regeneration in vivo.
(§2) DMD human induced pluripotent stem cells (hereafter “DMD hiPSC”), generated from the NORM-1 hiPSC WT cell line by gene editing, or WT human induced pluripotent stem cells (hereafter “WT hiPSC”), being NORM-1 hiPSC wt cell line, have been differentiated according to Chal et al. 2015, 2016, to produce muscle progenitors (hereafter “hMP”). The hMP population contains satellite-like cells (i.e Pax7-positive cells) and satellite cells' progenies (i.e. Myogenin-positive cells).
(§3) FIG. 1 provides an example of a Myotube assay workflow. At day 0, hMP are thawed and 3.1 million cells are plated into a T75-flask coated with hESC-qualified Matrigel™ (Corning) in SkGM proliferating medium (PromoCells), supplemented with 5 μM Y-27632 (Tocris Bioscience). On day 2, SkGM proliferating medium is refreshed. On day 4, hMP are harvested and transferred into a 384-well plate coated with collagen type I at a density of 3500 cells/well in a DMEM-based medium, containing 5% of knockout serum replacement (Gibco), 1% PenStrep (Gibco), 1% MEM NEAA (Gibco) and 0.1 mM 2-mercaptoethanol (Gibco) (hereafter “K5 medium”) and 5 μM Y-27632. Compounds to be tested are then added in the medium and incubated for 3 days at 37° C. On day 7, cells are fixed and immunostained. For example, myotubes (alpha-actinin staining) and satellite-like (Pax7 staining) cells can be analyzed for total myotube area per well or Pax7-positive cell quantification.
DMD hMP were put in the Myotube assay according to the workflow described in Example 2.1. In particular, compound (i) was added at concentrations ranging from 1.5 nM to 30 μM, starting from day 4. hMP were cultivated for three more days in presence of compound (i), then fixed and analyzed for percentage of Pax7-positive cells and nuclei number. Duplicates of each condition were averaged.
(−): Depletes the pool of cells, while positively affects the myotubes; (+): Maintains or increases the pool of cells, with at least 1 of the highest concentration known to be cytotoxic; and (++) Maintains or increases the pool of cells, without any toxicity.

Assay [2] has as its system muscle progenitors (hMP) from DMD hiPSC or WT hiPSC. As to the kind of experiment: Myotube assay: myogenic activity (total myotube area per well). As to conditions: Homo sapiens, 72 h, myotube assay, compounds incubated 3 days; for Emax: read-out: MA (normalized Myotube Area, efficacy); for EC50: 10 points dose-response 1.5 nM to 30 μM, read-out: EC50 (myogenic activity, half-maximal generation of myotubes). Format: cell-based, human. How it is done: An in vitro assay for assessing the efficacy of compounds for use in treating, ameliorating, delaying, curing and/or preventing a disease or condition associated with muscle cells and/or satellite cells is described in example 78. Herein, the generation of myotubes and satellite cells after adding a compound to a myotube assay workflow is assessed. Said myotube assay workflow is derived from wild-type or DMD human induced pluripotent stem cells (WT hiPSC or DMD hiPSC). Before the addition of said compound, the assay comprises satellite-like cells, but no significant amount of myotubes.
as §1, §2, §3
DMD hMP were put in the Myotube assay according to the workflow described in Example 2.1. In particular, compound (i) was added at concentrations ranging from 1.5 nM to 30 μM, starting from day 4. hMP were cultivated for three more days in presence of compound (i), then fixed and analyzed for quantification of total myotube area per well. Duplicates of each condition were averaged.
Qualitative scale: ++++: EC50<500 nM; +++: 500 nM≤EC50<1000 nM; ++: 1000 nM≤EC50<5000 nM; +: EC50≥5000 nM; +++: MA≥75%; ++: 50%≤MA<75%; +: 25%≤MA<50%.

Each structure is given as a SMILES string.

Consider `Cc1cc(NC(=O)Nc2ccc(Oc3ccnc4[nH]c(=O)cnc34)cc2F)n(-c2ccccc2)n1` [(a), 1-(2-fluoro-4-((3-oxo-3,4-dihydropyrido[2,3-b]pyrazin-8-yl)oxy)phenyl)-3-(3-methyl-1-phenyl-1H-pyrazol-5-yl)urea], for which, in assay [1], the “Pax7% (pool of Pax7-positive cells)” value is given as “++”. Also, the Emax in assay [2] lay in the range of 25 to 50%.

As for `CNC(=O)c1cc(Oc2cccc(NC(=O)Nc3cc(C(C)(C)C)nn3-c3ccccc3)c2)ccn1` [(aa), 4-(3-(3-(3-(tert-butyl)-1-phenyl-1H-pyrazol-5-yl)ureido)phenoxy)-N-methylpicolinamide], the “Pax7% (pool of Pax7-positive cells)” value in assay [1] is “++”. Further, in assay [2], the EC50 was 1000 to 5000 nM and the Emax fell in the range of 50 to 75%.

Regarding `CNC(=O)c1ccc(Oc2cccc(NC(=O)Nc3cc(C(C)(C)C)nn3-c3ccccc3)c2)cn1` [(ab), 5-(3-(3-(3-(tert-butyl)-1-phenyl-1H-pyrazol-5-yl)ureido)phenoxy)-N-methylpicolinamide], the “Pax7% (pool of Pax7-positive cells)” value in assay [1] is given as “++”. Also, the Emax in assay [2] lay within 50 to 75%.

Take `CC(C)(C)c1cc(NC(=O)Nc2ccc(Oc3ccccc3)cc2F)n(-c2ccccc2)n1` [(ac), 1-(3-(tert-butyl)-1-phenyl-1H-pyrazol-5-yl)-3-(2-fluoro-4-phenoxyphenyl)urea]: the “Pax7% (pool of Pax7-positive cells)” value in assay [1] is given as “++”. Moreover, in assay [2], the Emax was in the range of 50 to 75%.

With `CC(C)(C)c1cc(NC(=O)Nc2ccc(Oc3ccncc3)cc2F)n(-c2ccccc2)n1` [(ad), 1-(3-(tert-butyl)-1-phenyl-1H-pyrazol-5-yl)-3-(2-fluoro-4-(pyridin-4-yloxy)phenyl)urea], the “Pax7% (pool of Pax7-positive cells)” value in assay [1] is “++”. Also, the Emax in assay [2] fell in the range of 25 to 50%.

On to `CC(=O)Nc1cc(Oc2ccc(NC(=O)Nc3cc(C(C)(C)C)nn3-c3ccccc3)c(F)c2)ccn1` [(ae), N-(4-(4-(3-(3-(tert-butyl)-1-phenyl-1H-pyrazol-5-yl)ureido)-3-fluorophenoxy)pyridin-2-yl)acetamide], for which, in assay [1], the “Pax7% (pool of Pax7-positive cells)” value is reported as “+”. In assay [2], the Emax lay in the range of 50 to 75%.

Take `CC(C)(C)c1cc(NC(=O)Nc2ccc(Oc3ccc(F)cc3)cc2F)n(-c2ccccc2)n1` [(af), 1-(3-(tert-butyl)-1-phenyl-1H-pyrazol-5-yl)-3-(2-fluoro-4-(4-fluorophenoxy)phenyl)urea]: the “Pax7% (pool of Pax7-positive cells)” value in assay [1] was “++”. Besides, the Emax in assay [2] lay within 25 to 50%.

Consider `CNC(=O)c1cc(Oc2ccc(NC(=O)Nc3cc(C(C)(C)C)nn3-c3ccc4ncccc4c3)c(SC)c2)ccn1` [(ag), 4-(4-(3-(3-(tert-butyl)-1-(quinolin-6-yl)-1H-pyrazol-5-yl)ureido)-3-(methylthio)phenoxy)-N-methylpicolinamide], for which the “Pax7% (pool of Pax7-positive cells)” value in assay [1] is reported as “++”. The Emax in assay [2] is ≥ 75%.

For `CSc1cc(Oc2ccnc3[nH]c(=O)cnc23)ccc1NC(=O)Nc1ncc(C(C)(C)C)s1` [(ah), 1-(5-(tert-butyl)thiazol-2-yl)-3-(2-(methylthio)-4-((3-oxo-3,4-dihydropyrido[2,3-b]pyrazin-8-yl)oxy)phenyl)urea], the “Pax7% (pool of Pax7-positive cells)” value in assay [1] is “++”. In addition, the Emax in assay [2] is ≥ 75%.

As for `CNC(=O)c1cncc(Oc2ccc(NC(=O)Nc3cc(C(C)(C)C)nn3-c3ccccc3)c(SC)c2)c1` [(ai), 5-(4-(3-(3-(tert-butyl)-1-phenyl-1H-pyrazol-5-yl)ureido)-3-(methylthio)phenoxy)-N-methylnicotinamide], in assay [1], the “Pax7% (pool of Pax7-positive cells)” value is “++”. The Emax in assay [2] is 50 to 75%.

For `COc1ccc(-n2nc(C(C)(C)C)cc2NC(=O)Nc2ccc(Oc3ccnc4[nH]c(=O)cnc34)cc2SC)cc1` [(aj), 1-(3-(tert-butyl)-1-(4-methoxyphenyl)-1H-pyrazol-5-yl)-3-(2-(methylthio)-4-((3-oxo-3,4-dihydropyrido[2,3-b]pyrazin-8-yl)oxy)phenyl)urea], in assay [1], the “Pax7% (pool of Pax7-positive cells)” value is “++”. Moreover, in assay [2], the EC50 was in the range of 500 to 1000 nM and the Emax was ≥ 75%.

Consider `CC(C)(C)c1cc(NC(=O)Nc2ccc(Oc3ccnc4[nH]c(=O)cnc34)cc2Cl)n(-c2ccccc2)n1` [(ak), 1-(3-(tert-butyl)-1-phenyl-1H-pyrazol-5-yl)-3-(2-chloro-4-((3-oxo-3,4-dihydropyrido[2,3-b]pyrazin-8-yl)oxy)phenyl)urea], for which the “Pax7% (pool of Pax7-positive cells)” value in assay [1] is “+”. Besides, in assay [2], the Emax is ≥ 75%.

As for `Cc1cc(Oc2ccnc3[nH]c(=O)cnc23)ccc1NC(=O)Nc1cc(C(C)(C)C)nn1-c1ccccc1` [(al), 1-(3-(tert-butyl)-1-phenyl-1H-pyrazol-5-yl)-3-(2-methyl-4-((3-oxo-3,4-dihydropyrido[2,3-b]pyrazin-8-yl)oxy)phenyl)urea], the “Pax7% (pool of Pax7-positive cells)” value in assay [1] was “++”. The Emax in assay [2] is ≥ 75%.

As for `CCSc1cc(Oc2ccnc3[nH]c(=O)cnc23)ccc1NC(=O)Nc1cc(C(C)(C)C)nn1-c1ccccc1` [(am), 1-(3-(tert-butyl)-1-phenyl-1H-pyrazol-5-yl)-3-(2-(ethylthio)-4-((3-oxo-3,4-dihydropyrido[2,3-b]pyrazin-8-yl)oxy)phenyl)urea], the “Pax7% (pool of Pax7-positive cells)” value in assay [1] was “++”. Further, the Emax in assay [2] was ≥ 75%.

With `CSc1cc(Oc2ccnc3c2CCC(=O)N3)ccc1NC(=O)Nc1cc(C(C)(C)C)nn1-c1ccccc1` [(an), 1-(3-(tert-butyl)-1-phenyl-1H-pyrazol-5-yl)-3-(2-(methylthio)-4-((7-oxo-5,6,7,8-tetrahydro-1,8-naphthyridin-4-yl)oxy)phenyl)urea], in assay [1], the “Pax7% (pool of Pax7-positive cells)” value is “++”. In addition, the Emax in assay [2] was ≥ 75%.

Consider `CSc1cc(Oc2ccnc3[nH]c(=O)cnc23)ccc1NC(=O)Nc1cc(C(C)(C)C)nn1-c1ccc(Cl)cc1` [(ao), 1-(3-(tert-butyl)-1-(4-chlorophenyl)-1H-pyrazol-5-yl)-3-(2-(methylthio)-4-((3-oxo-3,4-dihydropyrido[2,3-b]pyrazin-8-yl)oxy)phenyl)urea], for which the “Pax7% (pool of Pax7-positive cells)” value in assay [1] was “++”. In addition, the Emax in assay [2] was ≥ 75%.

As to `CNC(=O)c1ccc(Oc2ccc(NC(=O)Nc3cc(C(C)(C)C)nn3-c3ccccc3)c(SC)c2)cn1` [(ap), 5-(4-(3-(3-(tert-butyl)-1-phenyl-1H-pyrazol-5-yl)ureido)-3-(methylthio)phenoxy)-N-methylpicolinamide], the “Pax7% (pool of Pax7-positive cells)” value in assay [1] is recorded as “++”. Besides, the Emax in assay [2] lay within 25 to 50%.

`CSc1cc(Oc2ccnc(NC(C)=O)c2)ccc1NC(=O)Nc1cc(C(C)(C)C)nn1-c1ccccc1` [(aq), N-(4-(4-(3-(3-(tert-butyl)-1-phenyl-1H-pyrazol-5-yl)ureido)-3-(methylthio)phenoxy)pyridin-2-yl)acetamide]: in assay [1], the “Pax7% (pool of Pax7-positive cells)” value is on record as “+”. The Emax in assay [2] was ≥ 75%.
